Reference: paper PMC9735621, “Synthesis, Biological Evaluation and Computational Studies of New Hydrazide Derivatives Containing 1,3,4-Oxadiazole as Antitubercular Agents” (International Journal of Molecular Sciences, 2022)
“And” between values parts separate entries of the source, which are not always exact repeats. Equal entries are not always repeated.

Legend:
Experiment in all cases: microbe, parasite or virus in culture
Type in all cases: cell-based
[1] = tested on: M. tuberculosis Strepto-R ATCC 35820; settings: Mycobacterium tuberculosis, ATCC35820
[2] = tested on: M. tuberculosis Pyr-R ATCC 35828; settings: Mycobacterium tuberculosis, ATCC35828
[3] = tested on: M. tuberculosis Rifa-R ATCC 35838; settings: Mycobacterium tuberculosis, ATCC35838
[4] = tested on: M. tuberculosis INH-R ATCC35822; settings: Mycobacterium tuberculosis

Structure (SMILES)	MIC [1]	MIC [2]	MIC [3]	MIC [4]
Cc1ccc(C=NNC(=O)c2nnc(-c3ccccc3)o2)cc1 (mixture of isomers) [1j, (E/Z)-N’-(4-methylbenzyliden)-5-phenyl-1,3,4-oxadiazol-2-carbohydrazide]	> 64 mg/L	16 µg/mL and 52.2 µM	> 64 mg/L	> 64 mg/L
O=C(N/N=C\c1ccccc1)c1nnc(-c2ccncc2)o1 [1a, (Z)-N’-benzyliden-5-(pyridin-4-yl)-1,3,4-oxadiazol-2-carbohydrazide]	> 64 mg/L	> 64 mg/L	> 64 mg/L	> 64 mg/L
O=C(N/N=C\c1ccc(Cl)cc1)c1nnc(-c2ccncc2)o1 [1b, (Z)-N’-(4-chlorobenzyliden)-5-(pyridin-4-yl)-1,3,4-oxadiazol-2-carbohydrazide]	> 64 mg/L	> 64 mg/L	> 64 mg/L	> 64 mg/L
Cc1ccc(/C=N\NC(=O)c2nnc(-c3ccncc3)o2)cc1 [1c, (Z)-N’-(4-methylbenzyliden)-5-(pyridin-4-yl)-1,3,4-oxadiazol-2-carbohydrazide]	> 64 mg/L	> 64 mg/L	> 64 mg/L	> 64 mg/L
O=C(N/N=C\c1ccc[nH]1)c1nnc(-c2ccncc2)o1 [1d, (Z)-N’-((1H-pyrrol-2-yl)methylen)-5-(pyridin-4-yl)-1,3,4-oxadiazol-2-carbohydrazide]	> 64 mg/L	> 64 mg/L	> 64 mg/L	> 64 mg/L
O=C(N/N=C\c1ccccn1)c1nnc(-c2ccncc2)o1 [1e, (Z)-N’-(pyridin-2-ylmethylen)-5-(pyridin-4-yl)-1,3,4-oxadiazol-2-carbohydrazide]	32 µg/mL and 108 µM	4 µg/mL and 13.6 µM	32 µg/mL and 108 µM	> 64 mg/L
O=C(N/N=C\c1ccncc1)c1nnc(-c2ccncc2)o1 [1f, (Z)-5-(pyridin-4-yl)-N’-(pyridin-4-ylmethylen)-1,3,4-oxadiazol-2-carbohydrazide]	> 64 mg/L	> 64 mg/L	> 64 mg/L	> 64 mg/L
O=C(N/N=C\c1ccco1)c1nnc(-c2ccncc2)o1 [1g, (Z)-N’-(furan-2-ylmethylen)-5-(pyridin-4-yl)-1,3,4-oxadiazol-2-carbohydrazide]	> 64 mg/L	> 64 mg/L	> 64 mg/L	> 64 mg/L
O=C(N/N=C\c1ccccc1)c1nnc(-c2ccccc2)o1 [1h, (Z)-N’-benzyliden-5-phenyl-1,3,4-oxadiazol-2-carbohydrazide]	> 64 mg/L	64 µg/mL and 196 µM	> 64 mg/L	> 64 mg/L
O=C(N/N=C\c1ccc(Cl)cc1)c1nnc(-c2ccccc2)o1 [1i, (Z)-N’-(4-chlorobenzyliden)-5-phenyl-1,3,4-oxadiazol-2-carbohydrazide]	> 64 mg/L	32 µg/mL and 97.8 µM	> 64 mg/L	> 64 mg/L
O=C(N/N=C\c1ccc[nH]1)c1nnc(-c2ccccc2)o1 [1k, (Z)-N’-((1H-pyrrol-2-yl)methylen)-5-phenyl-1,3,4-oxadiazol-2-carbohydrazide]	> 64 mg/L	4 µg/mL and 14.1 µM	> 64 mg/L	> 64 mg/L
O=C(N/N=C\c1ccccn1)c1nnc(-c2ccccc2)o1 [1l, (Z)-5-phenyl-N’-(pyridin-2-ylmethylen)-1,3,4-oxadiazol-2-carbohydrazide]	64 µg/mL and 109 µM	4 µg/mL and 13.6 µM	32 µg/mL and 54.4 µM	> 64 mg/L
O=C(N/N=C\c1ccncc1)c1nnc(-c2ccccc2)o1 [1m, (Z)-5-phenyl-N’-(pyridin-4-ylmethylen)-1,3,4-oxadiazol-2-carbohydrazide]	> 64 mg/L	16 µg/mL and 54.8 µM	> 64 mg/L	> 64 mg/L
O=C(N/N=C\c1ccco1)c1nnc(-c2ccccc2)o1 [1n, (Z)-N’-(furan-2-ylmethylen)-5-phenyl-1,3,4-oxadiazol-2-carbohydrazide]	32 µg/mL and 103 µM	16 µg/mL and 56.6 µM	32 µg/mL and 103 µM	> 64 mg/L
NNC(=O)c1ccncc1 [INH, Isoniazid, reference compound]	0.25 µg/mL and 1.8 µM	0.25 µg/mL and 1.8 µM	0.25 µg/mL and 1.8 µM	> 64 mg/L
CO[C@H]1/C=C/O[C@@]2(C)Oc3c(C)c(O)c4c(O)c(c(/C=N/N5CCN(C)CC5)c(O)c4c3C2=O)NC(=O)/C(C)=C\C=C\[C@H](C)[C@H](O)[C@@H](C)[C@@H](O)[C@@H](C)[C@H](OC(C)=O)[C@@H]1C [RIF, reference compound]	0.25 µg/mL and 0.3 µM	0.25 µg/mL and 0.3 µM	> 64 mg/L	0.25 µg/mL and 0.3 µM
